In US20240360103A1, “COMPLEMENT INHIBITION” (Apellis Pharmaceuticals, Inc., priority 2021, published 2024):

The compounds below were run against C3 convertase (CVF:Bb) (Homo sapiens, UniProt P00751) (assay: C3 Convertase Assay (biochemical assay, compound contacted with CVF:Bb, then C3 substrate added)).
Chain of C3 convertase (CVF:Bb) (P00751 260-764 limits assumed): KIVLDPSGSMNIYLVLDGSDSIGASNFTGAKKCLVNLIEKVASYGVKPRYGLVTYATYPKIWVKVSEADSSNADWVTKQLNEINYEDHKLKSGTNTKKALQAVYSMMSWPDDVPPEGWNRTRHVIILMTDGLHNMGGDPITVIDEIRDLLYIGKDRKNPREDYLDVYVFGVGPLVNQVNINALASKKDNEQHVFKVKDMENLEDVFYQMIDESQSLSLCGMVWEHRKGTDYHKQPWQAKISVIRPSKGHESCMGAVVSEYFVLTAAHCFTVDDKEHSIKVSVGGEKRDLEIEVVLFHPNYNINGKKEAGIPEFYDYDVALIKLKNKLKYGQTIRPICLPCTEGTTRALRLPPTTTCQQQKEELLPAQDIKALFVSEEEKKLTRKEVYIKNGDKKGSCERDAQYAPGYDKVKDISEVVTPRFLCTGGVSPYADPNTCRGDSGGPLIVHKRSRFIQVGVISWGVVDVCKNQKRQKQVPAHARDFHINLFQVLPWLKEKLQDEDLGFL
From the text: Various technologies are available for assessing provided compounds, compositions and methods. In some embodiments, a useful assay is an assay described below. […] In some embodiments, a purified, isolated or enriched C3 convertase is utilized. […] In some embodiments, a compound was first contacted with CVF:Bb, followed by addition of C3 substrates. As those skilled in the art will appreciate, products C3a and/or C3b could be detected through a number of technologies (e.g., antibodies specific for a product) and reduction of levels of one or both of them could be utilized to assess inhibition.
In the case of `COc1cc(Cl)c2[nH]ccc2c1CN1CCN(CC(F)F)C[C@H]1c1ccc(C(=O)O)cc1` [drawing 446], the IC50 is reported as 3150 nM.
Work on `COc1cc(C)c2[nH]ccc2c1CN1CCN(Cc2ncco2)C[C@H]1c1ccc(C(=O)O)cc1` yielded an IC50 of 9110 nM.
`Cc1ccc(CN2CCN(C)CC2c2ccc(C(=O)O)cc2)c2cc[nH]c12` (centres unmarked) gave an IC50 of 479 nM.
Work on `COc1cc(C)c2[nH]ccc2c1CN1CCN(C2CCCC2)CC1c1ccc(C(=O)O)cc1` (centres unmarked) yielded an IC50 of 3880 nM.
In the case of `COc1cc(C)c2[nH]ccc2c1CN1CCN(Cc2ncco2)C[C@@H]1c1ccc(C(=O)O)cc1`, the IC50 is reported as greater than 10000 nM.
`COc1cc(C)c2[nH]ccc2c1CN1CCN(C2CC2)C[C@@H]1c1ccc(C(=O)O)cc1` (single isomer, unassigned) showed an IC50 of 4380 nM.
In the case of `C#CCN1CCN(Cc2c(OC)cc(C)c3[nH]ccc23)C(c2ccc(C(=O)O)cc2)C1` (centres unmarked), the IC50 is reported as 1070 nM.
Work on `COc1cc(C)c2[nH]ccc2c1CN1CCN(c2ccccc2)CC1c1ccc(C(=O)O)cc1` (centres unmarked) yielded an IC50 greater than 10000 nM.
In the case of `CCCCN1CCN(Cc2c(OC)cc(C)c3[nH]ccc23)C(c2ccc(C(=O)O)cc2)C1` (centres unmarked), the IC50 is reported as 980 nM.
Work on `CN1CCN(Cc2cccc3[nH]ccc23)C(c2ccc(C(=O)O)cc2)C1` (centres unmarked) yielded an IC50 greater than 10000 nM.
`COc1cc(C)c2[nH]ccc2c1CN1CCN(C(C)=O)CC1c1ccc(C(=O)O)cc1` (centres unmarked) gave an IC50 greater than 10000 nM.
Work on `COc1cc(Cl)c2[nH]ccc2c1CN1CCN(CC(F)(F)F)C[C@@H]1c1ccc(C(=O)O)cc1` yielded an IC50 greater than 10000 nM.
With `COc1cc(C)c2[nH]ccc2c1CN1CCN(CC(F)F)C[C@H]1c1ccc(C(=O)O)cc1` the IC50 was 28 nM.
Compound `CCC(C)N1CCN(Cc2c(OC)cc(C)c3[nH]ccc23)C(c2ccc(C(=O)O)cc2)C1` (centres unmarked) has an IC50 of 405 nM.
With `COc1cc(C)c2[nH]ccc2c1CN1CCNCC1c1ccc(C(=O)O)cc1` (centres unmarked) the IC50 was greater than 10000 nM.
For `COc1cc(C)c2[nH]ccc2c1CN1CCN(C)C[C@@H]1c1ccc(C(=O)O)cc1` (single isomer, unassigned), the IC50 was greater than 10000 nM.
Compound `COc1cc(C)c2[nH]ccc2c1CN1CC2(CC2)N(C)C[C@H]1c1ccc(C(=O)O)cc1` has an IC50 of 7390 nM.
Work on `COc1cc(C)c2[nH]ccc2c1CN1CCN(CC2CC2)CC1c1ccc(C(=O)O)cc1` (centres unmarked) yielded an IC50 of 2290 nM.
In the case of `COc1cc(C)c2[nH]ccc2c1CN1CCN(c2nccs2)C[C@H]1c1ccc(C(=O)O)cc1`, the IC50 is reported as greater than 10000 nM.
`COc1cc(C)c2[nH]ccc2c1CN1CCN(CC(F)F)C[C@@H]1c1ccc(C(=O)O)cc1` showed an IC50 of 80 nM.
In the case of `COc1cc(C)c2[nH]ccc2c1CN1CCN(C(C)C)CC1c1ccc(C(=O)O)cc1` (centres unmarked), the IC50 is reported as 652 nM.
`COc1cc(C)c2[nH]ccc2c1CN1CCN(CC2CCC2)CC1c1ccc(C(=O)O)cc1` (centres unmarked) showed an IC50 of 1350 nM.
Compound `COc1cc(C)c2[nH]ccc2c1CN1CCN(C2CC2)C[C@H]1c1ccc(C(=O)O)cc1` (single isomer, unassigned) has an IC50 of 96 nM.
With `Cc1cc(C2CC2)c(CN2CCN(CC(F)F)C[C@@H]2c2ccc(C(=O)O)cc2)c2cc[nH]c12` the IC50 was 163 nM.
`COc1cc(C)c2[nH]ccc2c1CN1CCN(Cc2ccccc2)CC1c1ccc(C(=O)O)cc1` (centres unmarked) was tested, and the IC50 was 5240 nM.
For `COc1cc(Cl)c2[nH]ccc2c1CN1CCN(CC(F)F)C[C@H]1c1ccc(C(=O)O)cc1` [drawing 436], the IC50 was 1490 nM.
With `COc1cc(C)c2[nH]ccc2c1CN1CCN(CCCF)C[C@H]1c1ccc(C(=O)O)cc1` the IC50 was 99 nM.
Compound `COc1cc(C)c2[nH]ccc2c1CN1CCN(CC2CCCC2)CC1c1ccc(C(=O)O)cc1` (centres unmarked) has an IC50 of 3080 nM.
In the case of `COc1cc(Cl)c2[nH]ccc2c1CN1CCN(CC(F)(F)F)CC1c1ccc(C(=O)O)cc1` (centres unmarked), the IC50 is reported as 2700 nM.
With `COCCN1CCN(Cc2c(OC)cc(C)c3[nH]ccc23)C(c2ccc(C(=O)O)cc2)C1` (centres unmarked) the IC50 was 221 nM.
`COc1cc(C)c2[nH]ccc2c1CN1CCN(CC(F)F)C[C@H]1c1ccc(C(=O)NS(=O)(=O)C2CC2)cc1` was tested, and the IC50 was 520 nM.
For `COc1cc(C)c2[nH]ccc2c1CN1CCN(C2COC2)CC1c1ccc(C(=O)O)cc1` (centres unmarked), the IC50 was greater than 10000 nM.
For `COc1cc(C)c2[nH]ccc2c1CN1CCN(CCO)CC1c1ccc(C(=O)O)cc1` (centres unmarked), the IC50 was 119 nM.
With `COc1cc(C)c2[nH]ccc2c1CN1CCN(S(C)(=O)=O)CC1c1ccc(C(=O)O)cc1` (centres unmarked) the IC50 was 9330 nM.
With `COc1cc(C)c2[nH]ccc2c1CN1CCN(CCC(C)C)CC1c1ccc(C(=O)O)cc1` (centres unmarked) the IC50 was 3200 nM.
`CCC(C)CN1CCN(Cc2c(OC)cc(C)c3[nH]ccc23)C(c2ccc(C(=O)O)cc2)C1` (centres unmarked) was tested, and the IC50 was 6590 nM.
For `COc1cc(C)c2[nH]ccc2c1CN1CCN(C2CCC2)CC1c1ccc(C(=O)O)cc1` (centres unmarked), the IC50 was 2580 nM.
`COc1cc(Cl)c2[nH]ccc2c1CN1CCN(CC(F)(F)F)C[C@H]1c1ccc(C(=O)O)cc1` showed an IC50 of 2350 nM.
`COc1cc(C)c2[nH]ccc2c1CN1CCN(CC(C)C)CC1c1ccc(C(=O)O)cc1` (centres unmarked) was tested, and the IC50 was 4670 nM.
Compound `COc1cc(C)c2[nH]ccc2c1C(=O)N1CCN(C)CC1c1ccc(C(=O)O)cc1` (centres unmarked) has an IC50 greater than 10000 nM.
Compound `COc1cc(C)c2[nH]ccc2c1CN1CCN(CCF)C[C@@H]1c1ccc(C(=O)O)cc1` has an IC50 of 42 nM.
In the case of `COc1cc(C)c2[nH]ccc2c1CN1CCN(c2cccnn2)C[C@H]1c1ccc(C(=O)O)cc1`, the IC50 is reported as greater than 10000 nM.
`COc1cc(C)c2[nH]ccc2c1CN1CCN(c2ncccn2)C[C@H]1c1ccc(C(=O)O)cc1` showed an IC50 greater than 10000 nM.
`Cc1cc(C2CC2)c(CN2CCN(CC(F)(F)F)C[C@H]2c2ccc(C(=O)O)cc2)c2cc[nH]c12` showed an IC50 of 348 nM.
